molecular target: T1, Tumor necrosis factor receptor superfamily member 1A (Homo sapiens, UniProt P19438); experiment: ChEBML_224214
T1 sequence (P19438 whole entry): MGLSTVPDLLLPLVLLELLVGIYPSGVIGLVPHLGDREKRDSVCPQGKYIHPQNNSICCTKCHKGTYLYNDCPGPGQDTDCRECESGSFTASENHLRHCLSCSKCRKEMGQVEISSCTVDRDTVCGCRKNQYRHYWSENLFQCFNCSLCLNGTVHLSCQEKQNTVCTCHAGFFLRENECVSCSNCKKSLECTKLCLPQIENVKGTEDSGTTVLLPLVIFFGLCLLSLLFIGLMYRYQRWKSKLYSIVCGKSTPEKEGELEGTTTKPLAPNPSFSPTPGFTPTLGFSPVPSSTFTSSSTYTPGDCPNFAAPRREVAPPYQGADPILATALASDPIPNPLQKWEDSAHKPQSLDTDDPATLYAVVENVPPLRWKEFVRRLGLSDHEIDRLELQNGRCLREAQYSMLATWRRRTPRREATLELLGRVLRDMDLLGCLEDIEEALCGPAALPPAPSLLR
Text: Inhibition of TNF-alpha-induced VCAM-1 expression

Row | SMILES | IC50 [nM]
1 | COc1cc(OC)c(C(=O)/C=C/c2cc(-c3cccs3)ccc2OC)c(OC)c1 [(E)-3-(2-Methoxy-5-thiophen-2-yl-phenyl)-1-(2,4,6-trimethoxy-phenyl)-propenone] | 3000
2 | COc1ccc(-c2cccs2)cc1/C=C/C(=O)c1cc(OC)c(OC)c(OC)c1 [(E)-3-(2-Methoxy-5-thiophen-2-yl-phenyl)-1-(3,4,5-trimethoxy-phenyl)-propenone] | 3000
3 | COc1ccc(-c2cccs2)cc1/C=C/C(=O)c1ccccc1 [(E)-3-(2-Methoxy-5-thiophen-2-yl-phenyl)-1-phenyl-propenone] | 5000
4 | COc1cc(-c2cccs2)ccc1C(=O)/C=C/c1ccc(F)c(F)c1 [(E)-3-(3,4-Difluoro-phenyl)-1-(2-methoxy-4-thiophen-2-yl-phenyl)-propenone] | 2000
5 | COc1ccc(C(=O)/C=C/c2ccc(OC)c(OC)c2)cc1 [(E)-3-(3,4-Dimethoxy-phenyl)-1-(4-methoxy-phenyl)-propenone] | 15000
6 | CCOc1cc(OCC)c(C(=O)/C=C/c2cc(Br)c(OC)c(OC)c2)cc1OCC [(E)-3-(3-Bromo-4,5-dimethoxy-phenyl)-1-(2,4,5-triethoxy-phenyl)-propenone] | 15000
7 | COc1cc(OC)c(C(=O)/C=C/c2cc(Br)c(OC)c(OC)c2)cc1OC [(E)-3-(3-Bromo-4,5-dimethoxy-phenyl)-1-(2,4,5-trimethoxy-phenyl)-propenone] | 2000
8 | COc1cc(/C=C/C(=O)c2cc(OC)c(OC)c(OC)c2)cc(Br)c1OC [(E)-3-(3-Bromo-4,5-dimethoxy-phenyl)-1-(3,4,5-trimethoxy-phenyl)-propenone] | 4000
9 | CCOc1ccc(/C=C/C(=O)c2cc(-c3cccs3)ccc2OC)cc1F [(E)-3-(4-Ethoxy-3-fluoro-phenyl)-1-(2-methoxy-5-thiophen-2-yl-phenyl)-propenone] | 4000
10 | COc1cc(C(=O)/C=C/c2ccc(-c3cccs3)cc2)cc(OC)c1OC [(E)-3-(4-Thiophen-2-yl-phenyl)-1-(3,4,5-trimethoxy-phenyl)-propenone] | 6000
11 | COc1cc(OC)c(-c2cc3ccccc3s2)cc1/C=C/C(=O)c1ccc(OC)c(OC)c1OC [(E)-3-(5-Benzo[b]thiophen-2-yl-2,4-dimethoxy-phenyl)-1-(2,3,4-trimethoxy-phenyl)-propenone] | 8000
12 | COc1cc(OC)c(-c2cc3ccccc3s2)cc1/C=C/C(=O)c1cc(OC)c(OC)c(OC)c1 [(E)-3-(5-Benzo[b]thiophen-2-yl-2,4-dimethoxy-phenyl)-1-(3,4,5-trimethoxy-phenyl)-propenone] | 5000
13 | COc1cc(OC)c(-c2cc3ccccc3s2)cc1/C=C/C(=O)c1ccc(OC)c(OC)c1 [(E)-3-(5-Benzo[b]thiophen-2-yl-2,4-dimethoxy-phenyl)-1-(3,4-dimethoxy-phenyl)-propenone] | 11000
14 | COc1cc(OC)c(-c2cc3ccccc3s2)cc1/C=C/C(=O)c1cc(OC)c(OCC2CC2)c(OC)c1 [(E)-3-(5-Benzo[b]thiophen-2-yl-2,4-dimethoxy-phenyl)-1-(4-cyclopropylmethoxy-3,5-dimethoxy-phenyl)-propenone] | > 50000
15 | COc1cc(OC)c(-c2cc3ccccc3s2)cc1/C=C/C(=O)c1cc(OC)c(O)c(OC)c1 [(E)-3-(5-Benzo[b]thiophen-2-yl-2,4-dimethoxy-phenyl)-1-(4-hydroxy-3,5-dimethoxy-phenyl)-propenone] | 1000
16 | COc1cc(OC)c(-c2cc3ccccc3s2)cc1/C=C/C(=O)c1ccc(NC2OC(CO)C(O)C(O)C2O)cc1 (centres undefined) [(E)-3-(5-Benzo[b]thiophen-2-yl-2,4-dimethoxy-phenyl)-1-[4-(3,4,5-trihydroxy-6-hydroxymethyl-tetrahydro-pyran-2-ylamino)-phenyl]-propenone] | 17000
17 | COc1ccc(-c2cc3ccccc3s2)cc1/C=C/C(=O)c1cc(OC)c(OC)c(OC)c1 [(E)-3-(5-Benzo[b]thiophen-2-yl-2-methoxy-phenyl)-1-(3,4,5-trimethoxy-phenyl)-propenone] | 2000
18 | COc1ccc(-c2cc3ccccc3s2)cc1/C=C/C(=O)c1ccc(OC)c(OC)c1 [(E)-3-(5-Benzo[b]thiophen-2-yl-2-methoxy-phenyl)-1-(3,4-dimethoxy-phenyl)-propenone] | 2000
19 | COc1ccc(C(=O)/C=C/c2cc(-c3cc4ccccc4s3)ccc2OC)cc1 [(E)-3-(5-Benzo[b]thiophen-2-yl-2-methoxy-phenyl)-1-(4-methoxy-phenyl)-propenone] | 3000
20 | COc1cc(OC)c(/C=C/C(=O)c2cc(OC)c(OC)c(OC)c2)cc1Br [(E)-3-(5-Bromo-2,4-dimethoxy-phenyl)-1-(3,4,5-trimethoxy-phenyl)-propenone] | 2000
21 | COc1ccc(Br)cc1/C=C/C(=O)c1cc(OC)c(OC)c(OC)c1 [(E)-3-(5-Bromo-2-methoxy-phenyl)-1-(3,4,5-trimethoxy-phenyl)-propenone] | 1000
22 | COc1ccc(-c2cc(C)cs2)cc1/C=C/C(=O)c1cc(OC)c(OC)c(OC)c1 [(E)-3-[2-Methoxy-5-(4-methyl-thiophen-2-yl)-phenyl]-1-(3,4,5-trimethoxy-phenyl)-propenone] | 2000
23 | COc1ccc(-c2ccc(C)s2)cc1/C=C/C(=O)c1cc(OC)c(OC)c(OC)c1 [(E)-3-[2-Methoxy-5-(5-methyl-thiophen-2-yl)-phenyl]-1-(3,4,5-trimethoxy-phenyl)-propenone] | 2000
24 | COc1cc(C(=O)C=Cc2cc(OC)c(OC)c(-c3ccc(C(C)=O)s3)c2)cc(OC)c1OC [(E)-3-[3-(5-Acetyl-thiophen-2-yl)-4,5-dimethoxy-phenyl]-1-(3,4,5-trimethoxy-phenyl)-propenone] | 3000
25 | O=C(/C=C/c1ccccc1)c1ccccc1 [Chalcone, 13] | 23000
26 | COc1cc(OCC(=O)O)c(/C=C/C(=O)c2ccccc2)cc1-c1cc2ccccc2s1 [[4-Benzo[b]thiophen-2-yl-5-methoxy-2-((E)-3-oxo-3-phenyl-propenyl)-phenoxy]-acetic acid] | 1000
27 | COc1ccc(-c2cccs2)cc1/C=C/C(=O)c1cc(OC)c(OCC(=O)O)c(OC)c1 [{2,6-Dimethoxy-4-[(E)-3-(2-methoxy-5-thiophen-2-yl-phenyl)-acryloyl]-phenoxy}-acetic acid] | 1000
28 | COc1cc(C(=O)/C=C/c2cc(OC)c(OC)c(-c3cccs3)c2)cc(OC)c1OCC(=O)O [{4-[(E)-3-(3,4-Dimethoxy-5-thiophen-2-yl-phenyl)-acryloyl]-2,6-dimethoxy-phenoxy}-acetic acid] | 1000
29 | COc1cc(OC)c(-c2cc3ccccc3s2)cc1/C=C/C(=O)c1ccc(SCC(=O)O)cc1 [{4-[(E)-3-(5-Benzo[b]thiophen-2-yl-2,4-dimethoxy-phenyl)-acryloyl]-phenylsulfanyl}-acetic acid] | 1000

From BindingDB's records for doi:10.1016/j.bmcl.2004.01.021 (Atherogenics, 2004)
